Assay results from patent publication US6914045B2, “Glycopeptide antibiotics” (Wyeth Holdings Corporation, priority 2001, dated 2005).

Experiments:
Test in all cases: in vitro antibacterial evaluation, MIC by broth dilution
Format in all cases: cell-based
Enterococcus sp. = conditions: broth dilution, 18 hours at 35° C.
Procedure, shortened: (§1)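 Test organisms, which included recent clinical isolates resistant to methicillin, penicillin and/or vancomycin, were inoculated at 5×10^5 CFU/mL into Muller-Hinton II […] containing antibiotic at 64-0.06 μg/mL. Minimum inhibitory concentrations were then read as the lowest level inhibiting growth.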

Staphylococcus sp. = conditions: broth dilution, 18 hours at 35° C.
Procedure, shortened: as §1

Streptococcus sp. = conditions: broth dilution, 18 hours at 35° C.
Procedure, shortened: as §1

Escherichia coli = conditions: 18 hours at 35° C.

COc1ccc(COCC2OC(OC3C(CO)OC(Oc4ccc(CC5NC(=O)C(C(C)c6ccccc6)NC(=O)CNC(=O)C(CO)NC(=O)C(C(O)C6CNC(=N)N6C6OC(CO)C(O)C(O)C6O)NC(=O)C(C(O)C6CNC(=N)N6)NC5=O)cc4)C(O)C3O)C(O)C(O)C2O)c2ccccc12 (stereo not shown) [Example 240]
0.5 µg/mL: MIC Staphylococcus aureus (GC 3051) (Staphylococcus sp.) | MIC Staphylococcus aureus (GC 3051) (Staphylococcus sp.; strain GC 3051) | MIC Streptococcus agalactiae (GC 4564) (Streptococcus sp.) | MIC Streptococcus pyogenes (GC 4563) (Streptococcus sp.) | MIC Streptococcus pyogenes (GC 4563) (Streptococcus sp.; inoculum 5×10^5 CFU/mL, strain GC 4563) | MIC Streptococcus agalactiae (GC 4564) (Streptococcus sp.; inoculum 5×10^5 CFU/mL, strain GC 4564)
1 µg/mL: MIC Staphylococcus aureus (GC 4541) (Staphylococcus sp.) | MIC Staphylococcus aureus (GC 4541) (Staphylococcus sp.; strain GC 4541)
2 µg/mL: MIC Enterococcus faecium (GC 4557) (Enterococcus sp.) | MIC Enterococcus faecium (GC 4557) (Enterococcus sp.; strain GC 4557) | MIC Coagulase Negative Staphylococcus (GC 4548) (Staphylococcus sp.) | MIC Coagulase Negative Staphylococcus (GC 4549) (Staphylococcus sp.) | MIC Coagulase Negative Staphylococcus (GC 4551) (Staphylococcus sp.) | MIC Coagulase Negative Staphylococcus (GC 6257) (Staphylococcus sp.) | MIC Staphylococcus aureus (GC 4542) (Staphylococcus sp.) | MIC Staphylococcus aureus-SMITH (GC 4543) (Staphylococcus sp.) | MIC Staphylococcus haemolyticus (GC 4546) (Staphylococcus sp.) | MIC Staphylococcus aureus (GC 4542) (Staphylococcus sp.; strain GC 4542) | MIC Staphylococcus aureus-SMITH (GC 4543) (Staphylococcus sp.; strain GC 4543) | MIC Staphylococcus haemolyticus (GC 4546) (Staphylococcus sp.; strain GC 4546) | MIC Coagulase Negative Staphylococcus (GC 4548) (Staphylococcus sp.; strain GC 4548) | MIC Coagulase Negative Staphylococcus (GC 4549) (Staphylococcus sp.; strain GC 4549) | MIC Coagulase Negative Staphylococcus (GC 4551) (Staphylococcus sp.; strain GC 4551) | MIC Coagulase Negative Staphylococcus (GC 6257) (Staphylococcus sp.; strain GC 6257) | MIC Escherichia coli (GC 4560) (Escherichia coli)
>128 µg/mL: MIC Escherichia coli (GC 4559) (Escherichia coli)
4 µg/mL: MIC Enterococcus avium (GC 4558) (Enterococcus sp.) | MIC Enterococcus avium (GC 4558) (Enterococcus sp.; strain GC 4558) | MIC Coagulase Negative Staphylococcus (GC 4547) (Staphylococcus sp.) | MIC Staphylococcus aureus (ATCC 29213) (Staphylococcus sp.) | MIC Staphylococcus aureus (GC 1131) (Staphylococcus sp.) | MIC Staphylococcus aureus (GC 3053) (Staphylococcus sp.) | MIC Staphylococcus aureus (GC 4544) (Staphylococcus sp.) | MIC Staphylococcus aureus (GC 4545) (Staphylococcus sp.) | MIC Staphylococcus aureus (ATCC 29213) (Staphylococcus sp.; strain ATCC 29213) | MIC Staphylococcus aureus (GC 1131) (Staphylococcus sp.; strain GC 1131) | MIC Staphylococcus aureus (GC 3053) (Staphylococcus sp.; strain GC 3053) | MIC Staphylococcus aureus (GC 4544) (Staphylococcus sp.; strain GC 4544) | MIC Staphylococcus aureus (GC 4545) (Staphylococcus sp.; strain GC 4545) | MIC Coagulase Negative Staphylococcus (GC 4547) (Staphylococcus sp.; strain GC 4547)
<0.12 µg/mL: MIC Streptococcus pneumoniae (ATCC 6301) (Streptococcus sp.) | MIC Streptococcus pneumoniae (GC 1894) (Streptococcus sp.) | MIC Streptococcus pneumoniae (ATCC 6301) (Streptococcus sp.; inoculum 5×10^5 CFU/mL, strain ATCC 6301) | MIC Streptococcus pneumoniae (GC 1894) (Streptococcus sp.; inoculum 5×10^5 CFU/mL, strain GC 1894)
16 µg/mL: MIC Enterococcus faecalis (ATCC 29212) (Enterococcus sp.) | MIC Enterococcus faecalis (GC 2242) (Enterococcus sp.) | MIC Enterococcus faecalis (GC 4552) (Enterococcus sp.) | MIC Enterococcus faecalis (GC 4553) (Enterococcus sp.) | MIC Enterococcus faecalis (GC 4554) (Enterococcus sp.) | MIC Enterococcus faecium (GC 2243) (Enterococcus sp.) | MIC Enterococcus faecium (GC 4556) (Enterococcus sp.) | MIC Enterococcus faecalis (ATCC 29212) (Enterococcus sp.; strain ATCC 29212) | MIC Enterococcus faecium (GC 2243) (Enterococcus sp.; strain GC 2243) | MIC Enterococcus faecalis (GC 4552) (Enterococcus sp.; strain GC 4552) | MIC Enterococcus faecalis (GC 4553) (Enterococcus sp.; strain GC 4553) | MIC Enterococcus faecalis (GC 4554) (Enterococcus sp.; strain GC 4554) | MIC Enterococcus faecium (GC 4556) (Enterococcus sp.; strain GC 4556) | MIC Enterococcus faecalis (GC 2242) (Enterococcus sp.; inoculum 5×10^5 CFU/mL, strain GC 2242)
128 µg/mL: MIC Escherichia coli (ATCC 25922) (Escherichia coli)
8 µg/mL: MIC Enterococcus faecalis (GC 2691) (Enterococcus sp.) | MIC Enterococcus faecalis (GC 3059) (Enterococcus sp.) | MIC Enterococcus faecalis (GC 6189) (Enterococcus sp.) | MIC Enterococcus faecalis (GC 6189) (Enterococcus sp.; strain GC 6189) | MIC Enterococcus faecalis (GC 2691) (Enterococcus sp.; inoculum 5×10^5 CFU/mL, strain GC 2691) | MIC Enterococcus faecalis (GC 3059) (Enterococcus sp.; inoculum 5×10^5 CFU/mL, strain GC 3059)
0.25 µg/mL: MIC Streptococcus pneumoniae (GC 4565) (Streptococcus sp.) | MIC Streptococcus pneumoniae (GC 4565) (Streptococcus sp.; inoculum 5×10^5 CFU/mL, strain GC 4565)
